Our source for the IC50 values is US9694016B2 (Novartis AG, priority 2013, dated 2017).

b-Raf (V600E), sequence (P15056 whole entry V600E): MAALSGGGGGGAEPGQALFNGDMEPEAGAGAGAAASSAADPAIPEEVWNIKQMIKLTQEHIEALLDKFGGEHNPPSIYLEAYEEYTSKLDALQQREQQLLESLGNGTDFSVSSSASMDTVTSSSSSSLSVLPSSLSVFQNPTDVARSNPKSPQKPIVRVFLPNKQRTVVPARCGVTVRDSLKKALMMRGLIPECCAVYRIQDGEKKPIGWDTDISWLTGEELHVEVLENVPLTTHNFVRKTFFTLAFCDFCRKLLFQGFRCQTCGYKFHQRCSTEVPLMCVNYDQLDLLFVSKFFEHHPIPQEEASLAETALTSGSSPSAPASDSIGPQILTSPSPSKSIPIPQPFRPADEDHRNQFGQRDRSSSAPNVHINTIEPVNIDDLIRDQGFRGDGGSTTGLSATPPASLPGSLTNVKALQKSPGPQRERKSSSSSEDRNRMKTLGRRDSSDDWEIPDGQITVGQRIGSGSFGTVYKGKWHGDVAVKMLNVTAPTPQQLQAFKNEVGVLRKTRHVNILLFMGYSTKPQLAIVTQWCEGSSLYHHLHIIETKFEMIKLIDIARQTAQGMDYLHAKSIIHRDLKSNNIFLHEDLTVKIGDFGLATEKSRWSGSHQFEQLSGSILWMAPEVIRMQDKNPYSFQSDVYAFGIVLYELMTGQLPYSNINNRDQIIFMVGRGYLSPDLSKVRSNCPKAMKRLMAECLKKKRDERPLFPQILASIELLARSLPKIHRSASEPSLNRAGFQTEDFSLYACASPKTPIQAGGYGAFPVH

One test concerns the target b-Raf (V600E) (Homo sapiens (Human), UniProt P15056, V600E). The settings on record: read-out: b-Raf IC-50; AlphaScreen, 60 min pre-incubation, 3 hours reaction. (In general: In Alpha technology, singlet oxygen from a donor bead excites a nearby acceptor bead.)
As to `Cc1ncc(NC(=O)c2ccnc(C(C)(C)C#N)c2)cc1-c1cc(N2CCOCC2)nc(N[C@@H](C)CO)n1` [Example 744, (S)-2-(2-cyanopropan-2-yl)-N-(5-(2-((1-hydroxypropan-2-yl)amino)-6-morpholinopyrimidin-4-yl)-6-methylpyridin-3-yl)isonicotinamide], the IC50 was determined as 42.7 nM.
In the case of `CNCCN(C)c1cc(C(=O)Nc2ccc(C)c(-c3cc(N4CCOCC4)c(=O)n(C)c3)c2)ccn1` [Example 457, 2-(methyl(2-(methylamino)ethyl)amino)-N-(4-methyl-3-(1-methyl-5-morpholino-6-oxo-1,6-dihydropyridin-3-yl)phenyl)isonicotinamide], the IC50 was determined as 30.5 nM.
For the compound `Cc1ncc(NC(=O)c2cccc(C(F)F)c2)cc1-c1cc(N2CCOCC2)c(=O)n(C)n1` [Example 681, 3-(difluoromethyl)-N-(6-methyl-5-(1-methyl-5-morpholino-6-oxo-1,6-dihydropyridazin-3-yl)pyridin-3-yl)benzamide], the IC50 turned out to be 3.1 nM.
On to `CCNc1nc(-c2cc(NC(=O)c3ccnc(C(F)(F)F)c3)ccc2C)cc(N2CCOCC2)n1` [Example 694, N-(3-(2-(ethylamino)-6-morpholinopyrimidin-4-yl)-4-methylphenyl)-2-(trifluoromethyl)isonicotinamide], for which the IC50 is 1 nM.
As for `CCC(F)(F)c1cc(C(=O)Nc2ccc(C)c(-c3cc(N4CCOCC4)c(=O)n(C)n3)c2)ccn1` [Example 643, 2-(1,1-difluoropropyl)-N-(4-methyl-3-(1-methyl-5-morpholino-6-oxo-1,6-dihydropyridazin-3-yl)phenyl)isonicotinamide], the IC50 worked out at 1.3 nM.
On the same count and under the same terms, the value for `CCNc1nc(-c2cc(NC(=O)c3ccnc(C(C)C)c3)ccc2C)cc(N2CCOCC2)n1` [Example 700, N-(3-(2-(ethylamino)-6-morpholinopyrimidin-4-yl)-4-methylphenyl)-2-isopropylisonicotinamide] was 1.2 nM.
Consider `Cn1c(N2C3CCC2COC3)cc(-c2cc(NC(=O)c3ccnc(C(C)(F)F)c3)cnc2Cl)cc1=O` [Example 528, N-(6′-(3-oxa-8-azabicyclo[3.2.1]octan-8-yl)-2-chloro-1′-methyl-2′-oxo-1′,2′-dihydro-[3,4′-bipyridin]-5-yl)-2-(1,1-difluoroethyl)isonicotinamide], for which the IC50 worked out at 15.2 nM.
Regarding `CCNCc1ccc(C(=O)Nc2ccc(C)c(-c3cc(N4CCOCC4)c(OCC)nn3)c2)cc1C(F)(F)F` [Example 575, N-(3-(6-ethoxy-5-morpholinopyridazin-3-yl)-4-methylphenyl)-4-((ethylamino)methyl)-3-(trifluoromethyl)benzamide], the IC50 was 2.9 nM.
As for `CCOc1nc(-c2cc(NC(=O)c3ccnc(C(C)(C)C#N)c3)ccc2C)cc(N2CCOCC2)n1` [Example 764, 2-(2-cyanopropan-2-yl)-N-(3-(2-ethoxy-6-morpholinopyrimidin-4-yl)-4-methylphenyl)isonicotinamide], the IC50 worked out at 3.4 nM.
As for `CCOc1nnc(-c2cc(NC(=O)c3ccnc(C(C)(C)C#N)c3)ccc2C)cc1N1CCOC[C@@H]1C` [Example 572, (S)-2-(2-cyanopropan-2-yl)-N-(3-(6-ethoxy-5-(3-methylmorpholino)pyridazin-3-yl)-4-methylphenyl)isonicotinamide], the IC50 amounted to 3.8 nM.

The same test, now with this note: read-out: b-Raf IC-50; AlphaScreen, 60 min pre-incubation, reaction 3 hours at room temperature.
In the case of `Cc1ccc(NC(=O)c2cc(C(C)(C)C#N)ccn2)cc1-c1cc(N2CCOCC2)c(=O)n(C)n1` [Example 910, 4-(2-cyanopropan-2-yl)-N-(4-methyl-3-(1-methyl-5-morpholino-6-oxo-1,6-dihydropyridazin-3-yl)phenyl)picolinamide], the IC50 is 5.09 nM.
In the case of `Cc1ncc(NC(=O)c2cccc(C(F)(F)F)c2)cc1-c1cc(N2CCNCC2)nc(N2CCOCC2)c1` [Example 1129, N-(2-methyl-2′-morpholino-6′-(piperazin-1-yl)-[3,4′-bipyridin]-5-yl)-3-(trifluoromethyl)benzamide], the IC50 is 4.64 nM.
Turning to `Cc1ncc(NC(=O)c2cccc(C(F)(F)F)c2)cc1-c1cc(N2CCOCC2)nc(N2CC(O)C2)c1` [Example 1094, N-(2′-(3-hydroxyazetidin-1-yl)-2-methyl-6′-morpholino-[3,4′-bipyridin]-5-yl)-3-(trifluoromethyl)benzamide], the IC50 was determined as 3.84 nM.
Still for that read-out and setting: for `Cc1ncc(NC(=O)c2ccnc(C(C)(C)O)c2)cc1-c1cnc(OC(C)C)c(N2CCOCC2)c1` [Example 955, 2-(2-hydroxypropan-2-yl)-N-(6′-isopropoxy-2-methyl-5′-morpholino-[3,3′-bipyridin]-5-yl)isonicotinamide] the value was 18.1 nM; for `Cc1ccc(NC(=O)c2cncc(C(F)(F)F)c2)cc1-c1cnc(OC(C)C)c(N2CCOCC2)c1` [Example 951, N-(3-(6-isopropoxy-5-morpholinopyridin-3-yl)-4-methylphenyl)-5-(trifluoromethyl)nicotinamide], 0.31 nM; for `Cc1ccc(NC(=O)c2ccnc(C(C)(C)C#N)c2)cc1-c1nc(N2CCOCC2)c2sccc2n1` [Example 862, 2-(2-cyanopropan-2-yl)-N-(4-methyl-3-(4-morpholinothieno[3,2-d]pyrimidin-2-yl)phenyl)isonicotinamide], 0.9 nM.

Staying with this test, now noted: read-out: b-Raf IC-50; Table 2; AlphaScreen, 3 hours reaction.
Turning to `Cc1ncc(NC(=O)c2ccnc(C(C)(C)C#N)c2)cc1-c1cc(N2CCOCC2)c(=O)n(C)c1` [Example 141, 2-(2-cyanopropan-2-yl)-N-(1′,2-dimethyl-5′-morpholino-6′-oxo-1′,6′-dihydro-[3,3′-bipyridin]-5-yl)isonicotinamide], the IC50 was determined as 47.5 nM.
Regarding `Cc1ncc(NC(=O)c2cnnc(C3CC3)c2)cc1-c1cnc(N(C)C)c(N2CCOCC2)c1` [Example 271, 6-cyclopropyl-N-(6′-(dimethylamino)-2-methyl-5′-morpholino-[3,3′-bipyridin]-5-yl)pyridazine-4-carboxamide], the IC50 is 0.7 nM.
Regarding `Cc1ncc(NC(=O)c2cccc(C(F)(F)F)c2)cc1-c1cnc(OC2CCOCC2)c(N2CCOCC2=O)c1` [Example 309, N-(2-methyl-5′-(3-oxomorpholino)-6′-((tetrahydro-2H-pyran-4-yl)oxy)-[3,3′-bipyridin]-5-yl)-3-(trifluoromethyl)benzamide], the IC50 is 9.2 nM.
As to `Cn1cc(-c2cc(NC(=O)c3ccnc(C(F)(F)F)c3)cnc2Cl)cc(N2CCOCC2)c1=O` [Example 404, N-(2-chloro-1′-methyl-5′-morpholino-6′-oxo-1′,6′-dihydro-[3,3′-bipyridin]-5-yl)-2-(trifluoromethyl)isonicotinamide], the IC50 was determined as 4.3 nM.
Consider `COC(=O)NCCn1cc(-c2cc(NC(=O)c3cccc(C(F)(F)F)c3)cnc2C)cc(N2CCOCC2)c1=O` [Example 193, methyl(2-(2′-methyl-5-morpholino-6-oxo-5′-(3-(trifluoromethyl)benzamido)-[3,3′-bipyridin]-1(6H)-yl)ethyl)carbamate], for which the IC50 was 100 nM.
Same read-out and setting: for `Cc1ncc(NC(=O)c2ccnc(C(C)C)c2)cc1-c1cnc(C#N)c(N2CCOCC2)c1` [Example 251, N-(6′-cyano-2-methyl-5′-morpholino-[3,3′-bipyridin]-5-yl)-2-isopropylisonicotinamide] the value was 3.1 nM; for `Cc1ncc(NC(=O)c2ccnc(C3(C#N)CC3)c2)cc1-c1cnc(N(C)C)c(N2CCOCC2)c1` [Example 266, 2-(1-cyanocyclopropyl)-N-(6′-(dimethylamino)-2-methyl-5′-morpholino-[3,3′-bipyridin]-5-yl)isonicotinamide], 1.9 nM.
